From ChEMBL document CHEMBL1201862, “PubChem BioAssay data set” (2004)
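Following 48 hours of exposure in 96-well plates, responses at five concentrations were used to interpolate endpoints linearly. GI50 is the concentration that inhibits growth by half.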 The source made the active and inactive calls. Cut-off read from the data, not from the text of the source: active = GI50 up to about 1.1 µM and inactive = higher.

Key:
Assay in all cases: inhibition of tumour cell growth, NCI panel, 48 h
786-0 = tested on: 786-0
A498 = tested on: A498
A549 = tested on: A549
ACHN = tested on: ACHN
BT-549 = tested on: BT-549
CAKI-1 = tested on: CAKI-1
CCRF-CEM = tested on: CCRF-CEM
COLO 205 = tested on: COLO 205
DU-145 = tested on: DU-145
EKVX = tested on: EKVX
HCC 2998 = tested on: HCC 2998
HCT-116 = tested on: HCT-116
HCT-15 = tested on: HCT-15
HL-60 = tested on: HL-60
HOP-62 = tested on: HOP-62
HOP-92 = tested on: HOP-92
HT-29 = tested on: HT-29
Hs-578T = tested on: Hs-578T
IGROV-1 = tested on: IGROV-1
K562 = tested on: K562
KM12 = tested on: KM12
LOX IMVI = tested on: LOX IMVI
M14 = tested on: M14
MCF7 = tested on: MCF7
MDA-MB-231 = tested on: MDA-MB-231
MDA-MB-435 = tested on: MDA-MB-435
MDA-N = tested on: MDA-N
MOLT-4 = tested on: MOLT-4
Malme-3M = tested on: Malme-3M
NCI-H23 = tested on: NCI-H23
NCI-H460 = tested on: NCI-H460
NCI-H522 = tested on: NCI-H522
NCI/ADR-RES = tested on: NCI/ADR-RES
OVCAR-3 = tested on: OVCAR-3
OVCAR-5 = tested on: OVCAR-5
OVCAR-8 = tested on: OVCAR-8
PC-3 = tested on: PC-3
RPMI-8226 = tested on: RPMI-8226
RXF 393 = tested on: RXF 393
SF-268 = tested on: SF-268
SF-295 = tested on: SF-295
SK-MEL-28 = tested on: SK-MEL-28
SK-MEL-2 = tested on: SK-MEL-2
SK-MEL-5 = tested on: SK-MEL-5
SK-OV-3 = tested on: SK-OV-3
SN12C = tested on: SN12C
SNB-19 = tested on: SNB-19
SNB-75 = tested on: SNB-75
SR = tested on: SR
SW-620 = tested on: SW-620
T47D = tested on: T47D
TK-10 = tested on: TK-10
U-251 = tested on: U-251
UACC-257 = tested on: UACC-257
UACC-62 = tested on: UACC-62
UO-31 = tested on: UO-31
NCI-H226 = tested on: NCI-H226
OVCAR-4 = tested on: OVCAR-4
SF-539 = tested on: SF-539

COC1(c2ccccc2)N=C(S)NN=C1c1ccccc1 (centres undefined)
GI50 (786-0): 41.7 µM (inactive) | GI50 (A498): > 100 µM (inactive) | GI50 (A549): 45.2 µM (inactive) | GI50 (ACHN): > 100 µM (inactive) | GI50 (BT-549): 28.2 µM (inactive) | GI50 (CAKI-1): 73.8 µM (inactive) | GI50 (CCRF-CEM): 28.2 µM (inactive) | GI50 (COLO 205): 21.9 µM (inactive) | GI50 (DU-145): 32.8 µM (inactive) | GI50 (EKVX): 89.9 µM (inactive) | GI50 (HCC 2998): 19.2 µM (inactive) | GI50 (HCT-116): 35.5 µM (inactive) | GI50 (HCT-15): 24.3 µM | GI50 (HL-60): 21 µM (inactive) | GI50 (HOP-62): 44.8 µM (inactive) | GI50 (HOP-92): > 100 µM (inactive) | GI50 (HT-29): 44.2 µM (inactive) | GI50 (Hs-578T): 42.4 µM (inactive) | GI50 (IGROV-1): 34.8 µM (inactive) | GI50 (K562): 33.4 µM (inactive) | GI50 (KM12): 39.8 µM (inactive) | GI50 (LOX IMVI): 36.1 µM (inactive) | GI50 (M14): 27.5 µM (inactive) | GI50 (MCF7): 38 µM (inactive) | GI50 (MDA-MB-231): 27.5 µM (inactive) | GI50 (MDA-MB-435): 19.5 µM (inactive) | GI50 (MDA-N): 21.5 µM (inactive) | GI50 (MOLT-4): 35.4 µM (inactive) | GI50 (Malme-3M): 60.4 µM (inactive) | GI50 (NCI-H23): 36.6 µM (inactive) | GI50 (NCI-H460): 27.5 µM (inactive) | GI50 (NCI-H522): 24.9 µM (inactive) | GI50 (NCI/ADR-RES): 19.1 µM (inactive) | GI50 (OVCAR-3): 30.9 µM (inactive) | GI50 (OVCAR-5): 78.2 µM (inactive) | GI50 (OVCAR-8): 29.3 µM (inactive) | GI50 (PC-3): 31.4 µM (inactive) | GI50 (RPMI-8226): 38.9 µM (inactive) | GI50 (RXF 393): 63.4 µM (inactive) | GI50 (SF-268): 37.2 µM (inactive) | GI50 (SF-295): 30.5 µM (inactive) | GI50 (SK-MEL-28): 85.1 µM (inactive) | GI50 (SK-MEL-2): 27.9 µM (inactive) | GI50 (SK-MEL-5): 29.5 µM (inactive) | GI50 (SK-OV-3): 26.7 µM (inactive) | GI50 (SN12C): 21 µM (inactive) | GI50 (SNB-19): 54.2 µM (inactive) | GI50 (SNB-75): 38.5 µM (inactive) | GI50 (SR): 29.4 µM (inactive) | GI50 (SW-620): 38.6 µM (inactive) | GI50 (T47D): 33.5 µM (inactive) | GI50 (TK-10): 48.2 µM (inactive) | GI50 (U-251): 21.2 µM (inactive) | GI50 (UACC-257): 49.1 µM (inactive) | GI50 (UACC-62): 51.4 µM (inactive) | GI50 (UO-31): > 100 µM (inactive)

CCn1c(=O)c2c3ccc(O)cc3oc2c2ccc(O)cc21
GI50 (786-0): 63.4 µM (inactive) | GI50 (A498): 25.4 µM (inactive) | GI50 (A549): 41.1 µM (inactive) | GI50 (ACHN): 24.8 µM (inactive) | GI50 (BT-549): 26.1 µM (inactive) | GI50 (CAKI-1): 39.4 µM (inactive) | GI50 (CCRF-CEM): 28.2 µM (inactive) | GI50 (COLO 205): 44.7 µM (inactive) | GI50 (DU-145): 47.8 µM (inactive) | GI50 (EKVX): 3.55 µM (inactive) | GI50 (HCC 2998): 47 µM (inactive) | GI50 (HCT-116): 27.2 µM (inactive) | GI50 (HCT-15): 39.4 µM | GI50 (HOP-62): 34.4 µM (inactive) | GI50 (HOP-92): 57.9 µM (inactive) | GI50 (HT-29): 48.1 µM (inactive) | GI50 (Hs-578T): 14.6 µM (inactive) | GI50 (IGROV-1): 40.4 µM (inactive) | GI50 (K562): 40.6 µM (inactive) | GI50 (KM12): 49.1 µM (inactive) | GI50 (M14): 43.2 µM (inactive) | GI50 (MCF7): 39.2 µM (inactive) | GI50 (MDA-MB-231): 30.2 µM (inactive) | GI50 (MDA-MB-435): 33.7 µM (inactive) | GI50 (MDA-N): 37.5 µM (inactive) | GI50 (MOLT-4): 25.5 µM (inactive) | GI50 (Malme-3M): 41.7 µM (inactive) | GI50 (NCI-H226): 42.7 µM (inactive) | GI50 (NCI-H23): 37.4 µM (inactive) | GI50 (NCI-H460): 34.6 µM (inactive) | GI50 (NCI-H522): 40.1 µM (inactive) | GI50 (NCI/ADR-RES): 53.3 µM (inactive) | GI50 (OVCAR-3): 42.7 µM (inactive) | GI50 (OVCAR-4): 62.4 µM (inactive) | GI50 (OVCAR-8): 50.6 µM (inactive) | GI50 (PC-3): 42.6 µM (inactive) | GI50 (RXF 393): 53.7 µM (inactive) | GI50 (SF-268): 36.9 µM (inactive) | GI50 (SF-295): 52.4 µM (inactive) | GI50 (SF-539): 34.9 µM (inactive) | GI50 (SK-MEL-28): 49.1 µM (inactive) | GI50 (SK-MEL-5): 22.5 µM (inactive) | GI50 (SK-OV-3): 38.5 µM (inactive) | GI50 (SN12C): 41.5 µM (inactive) | GI50 (SNB-19): 43.8 µM (inactive) | GI50 (SNB-75): 29.9 µM (inactive) | GI50 (SR): 27.6 µM (inactive) | GI50 (SW-620): 41 µM (inactive) | GI50 (T47D): 18.1 µM (inactive) | GI50 (TK-10): 44 µM (inactive) | GI50 (U-251): 32.2 µM (inactive) | GI50 (UACC-257): > 100 µM (inactive) | GI50 (UACC-62): 31.1 µM (inactive) | GI50 (UO-31): 26.7 µM (inactive)

O=[N+]([O-])c1ccc(OP(=O)(O)OCC2OC(CP(=O)(O)O)C(O)C2O)cc1 (centres undefined)
GI50 (786-0): > 100 µM (inactive) | GI50 (A498): > 100 µM (inactive) | GI50 (A549): > 100 µM (inactive) | GI50 (ACHN): > 100 µM (inactive) | GI50 (BT-549): > 100 µM (inactive) | GI50 (CAKI-1): > 100 µM (inactive) | GI50 (CCRF-CEM): > 100 µM (inactive) | GI50 (COLO 205): > 100 µM (inactive) | GI50 (DU-145): > 100 µM (inactive) | GI50 (EKVX): > 100 µM (inactive) | GI50 (HCC 2998): > 100 µM (inactive) | GI50 (HCT-116): > 100 µM (inactive) | GI50 (HCT-15): > 100 µM | GI50 (HL-60): > 100 µM (inactive) | GI50 (HOP-62): > 100 µM (inactive) | GI50 (HOP-92): > 100 µM (inactive) | GI50 (HT-29): > 100 µM (inactive) | GI50 (Hs-578T): > 100 µM (inactive) | GI50 (IGROV-1): > 100 µM (inactive) | GI50 (K562): > 100 µM (inactive) | GI50 (KM12): > 100 µM (inactive) | GI50 (LOX IMVI): > 100 µM (inactive) | GI50 (M14): > 100 µM (inactive) | GI50 (MCF7): > 100 µM (inactive) | GI50 (MDA-MB-231): > 100 µM (inactive) | GI50 (MDA-MB-435): > 100 µM (inactive) | GI50 (MDA-N): > 100 µM (inactive) | GI50 (MOLT-4): > 100 µM (inactive) | GI50 (NCI-H23): > 100 µM (inactive) | GI50 (NCI-H460): > 100 µM (inactive) | GI50 (NCI-H522): > 100 µM (inactive) | GI50 (NCI/ADR-RES): > 100 µM (inactive) | GI50 (OVCAR-3): > 100 µM (inactive) | GI50 (OVCAR-4): > 100 µM (inactive) | GI50 (OVCAR-5): > 100 µM (inactive) | GI50 (OVCAR-8): > 100 µM (inactive) | GI50 (PC-3): > 100 µM (inactive) | GI50 (RXF 393): > 100 µM (inactive) | GI50 (SF-268): > 100 µM (inactive) | GI50 (SF-295): > 100 µM (inactive) | GI50 (SF-539): > 100 µM (inactive) | GI50 (SK-MEL-28): > 100 µM (inactive) | GI50 (SK-MEL-2): > 100 µM (inactive) | GI50 (SK-MEL-5): > 100 µM (inactive) | GI50 (SN12C): > 100 µM (inactive) | GI50 (SNB-19): > 100 µM (inactive) | GI50 (SR): > 100 µM (inactive) | GI50 (SW-620): > 100 µM (inactive) | GI50 (T47D): > 100 µM (inactive) | GI50 (TK-10): > 100 µM (inactive) | GI50 (U-251): > 100 µM (inactive) | GI50 (UACC-257): > 100 µM (inactive) | GI50 (UACC-62): > 100 µM (inactive) | GI50 (UO-31): > 100 µM (inactive)
